{
  "source": "patent US20030060438A1",
  "about": "“Oligonucleotides and other modulators of the NK-1 receptor pathway and therapeutic uses thereof” (priority 2000, published 2003)",
  "key": {"NK-1 receptor [1]": {"tested_on": "NK-1 receptor", "experiment": "Substance P-induced thermal hyperalgesia, intrathecal oligonucleotide", "format": "in vivo", "settings": "intrathecal 75 micro grams/10 microlitres Q12h with SP", "description": "The effect of intrathecal (spinal) administration of NK-1 receptor antisense oligonucleotide on substance P-induced thermal hyperalgesia is shown in FIG. 1.\nLatency to thermal stimulation (baseline (B) recordings) was assessed prior to intrathecal injection of substance P (SP, indicated by the arrow in both upper and lower panels). On day 0 (before oligonucleotide treatment has begun), SP (6.7 nmol/10 microlitres) produced a decrease in thermal latency to response indicating the occurrence of hyperalgesia (exaggerated response to noxious or painful stimulation, hollow symbols on both upper and lower panels). Oligonucleotide treatment (75 micro grams/10 microlitres, Q12h for 6 days) or ASCF control (artificial cerebral spinal fluid) was commenced subsequent to assessment of substance P-induced thermal hyperalgesia on day 0. Intrathecal SP (6.7 nmol/10 microlitres, Q12h for 6 days) was administered, in addition to the oligonucleotide, to stimulate NK-1 receptor turnover. Three days after twice-daily injections of antisense (AS) were begun, SP-induced thermal hyperalgesia was attenuated (upper graph, triangles). […] Statistical analysis was performed by a two way ANOVA with time and treatment as independent measures. Time: F(6,21)=10.234, p<0.01, Treatment: F(6,21)=8.245, p<0.05."}, "NK-1 receptor [2]": {"tested_on": "NK-1 receptor", "experiment": "Western blot of NK-1 receptor protein in lumbar spinal cord after intrathecal oligonucleotide, neuropathic pain model", "format": "in vivo, rat", "settings": "intrathecal 2 micro grams/microlitres/h, 48 h prior to sciatic nerve constriction and continuously for 6 days", "description": "Oligonucleotides or ASCF control (artificial cerebral spinal fluid) was administered for 48 h prior to sciatic nerve constriction and continuously for 6 days (2 micro grams/microlitres/h) via Alzet® minipumps attached to intrathecal catheters for spinal delivery. Rats were sacrificed by decapitation and lumbar spinal cords were dissected and processed for Western blotting analysis. Samples were resolved using 10% Tris-glycine gels and the proteins were electroblotted onto nitrocellulose membranes. Molecular mass markers are presented in the right column. The arrow indicates the NK-1 receptor."}, "NK-1 receptor [3]": {"tested_on": "NK-1 receptor", "experiment": "Neuropathic pain model (sciatic nerve constriction), mechanical allodynia by von Frey hairs, intrathecal oligonucleotide", "format": "in vivo, rat", "description": "Neuropathic pain is a continuous, permanent pain that results from nerve damage. One common feature of neuropathic pain is mechanical allodyina (a painful response to a non-painful stimulus). Humans with neuropathic pain cannot wear clothing on affected regions of the skin or cannot stand in air currents, because their sensitivity is so profound. Neuropathic pain was induced by constriction of the sciatic nerve. Mechanical response thresholds (grams of force) were assessed by application of von Frey hairs to the plantar surface of the ipsilateral hind paw for all groups prior to sciatic nerve constriction surgery (baseline values: B). Oligonucleotides or ASCF control ([…]) via Alzet® minipumps attached to intrathecal catheters for spinal delivery. […] Statistical analyses on mechanical thresholds were performed using the non-parametric Friedman's repeated measures analysis of variance on ranks followed by Wilcoxon signed rank test for post hoc comparisons. […] The lower panel illustrates the mechanical response thresholds are not affected in the contralateral hind paw.\nNeuropathic pain was induced by constriction of the sciatic nerve. Mechanical response thresholds (grams of force) were assessed by application of von Frey hairs to the plantar surface of the ipsilateral hind paw for all groups prior to sciatic nerve constriction surgery (baseline values: B). Oligonucleotides or ASCF control ([…]) via Alzet® minipumps attached to intrathecal catheters for spinal delivery.\n(§1) Neuropathic pain was induced by constriction of the sciatic nerve. Mechanical response thresholds (grams of force) were assessed by application of von Frey hairs to the plantar surface of the ipsilateral hind paw for all groups prior to sciatic nerve constriction surgery (baseline values: B). Oligonucleotides or ASCF control (artificial cerebral spinal fluid) was administered for 72 h by continuous infusion (2 micro grams/microlitres/h) via Alzet® minipumps attached to intrathecal catheters for spinal delivery starting 6 days following nerve constriction (once the mechanical allodynia was established in all groups).\nas §1, with “6 days” for “72 h”, “(0.45” for “(2”, “7” for “6”"}, "NK-1 receptor [4]": {"tested_on": "NK-1 receptor", "experiment": "CFA arthritis model, joint flexibility, systemic oligonucleotide", "format": "in vivo, rat", "settings": "day 18 after CFA; 300 micro grams/kg, Q12 h, intraperitoneal", "description": "Complete Freund's Adjuvant (CFA) was injected into the ankle joint of the rat and the flexibility of the affected joint was assessed on day 18 during the arthritic phase of the model. This was accomplished by measuring the difference between the extension and flexion of the affected joint. Antisense (AS) oligonucleotide (300 micro grams/kg, Q12 h, intraperitoneal) or saline was administered for 2 days prior to CFA injection and for the subsequent 18 days. […] Statistical analysis was performed using a one way ANOVA and post hoc analysis using the Dunnett's test."}, "NK-1 receptor [5]": {"tested_on": "NK-1 receptor", "experiment": "Zymosan model of inflammatory bowel disease, Evans blue plasma extravasation of the colon", "format": "in vivo, rat", "settings": "300 micro grams/kg, Q12 h, intraperitoneal for 6 days prior to rectal zymosan; Evans blue three hours after zymosan", "description": "Inflammatory bowel disease (IBD) is a generic term used to describe major clinical entities including Crohn's disease and ulcerative colitis. IBD was simulated by rectal administration of zymosan, a complement-activating substance. Antisense (AS) oligonucleotide (300 micro grams/kg, Q12 h, intraperitoneal) or saline was administered for 6 days prior to zymosan administration. Three hours after administration of zymosan, rats are injected with Evans blue dye which enables the assessment of plasma extravasation of the colon (degree of inflammation). […] Statistical analysis was performed using an unpaired t-test."}, "NK-1 receptor [6]": {"tested_on": "NK-1 receptor", "experiment": "Intradermal substance P-induced plasma extravasation in skin (Evans blue)", "format": "in vivo, rat", "settings": "300 micro grams/kg, Q12 h, intraperitoneal for 6 days; intradermal substance P 6.7 nmol/100 microlitres", "description": "Intradermal injection of substance P and neurokinin A produce a wheal and flare inflammatory reaction. Antisense (AS) oligonucleotide (300 micro grams/kg, Q12 h, intraperitoneal) or saline was administered for 6 days prior to experimentation. Substance P or neurokinin A was injected into the dermis of the skin (6.7 nmol/100 microlitres) after intravenous administration of evans blue dye which allows for assessment of neuropeptide-induced plasma extravasation. […] Statistical analysis was performed using an unpaired t-test."}, "[7]": {"settings": "intrathecal 2 micro grams/microlitres/h for 72 h starting 6 days following nerve constriction"}},
  "data": [
    {"substance": "5′gac gtt atc cat ttt ggg g3′ (antisense GACGTTATCCATTTTGGGG; listed as DNA, chemistry not fully specified) [NK-1 receptor antisense oligonucleotide used in all experiments]", "values": [
      {"measurement": "SP-induced thermal hyperalgesia (thermal latency)", "setting": "NK-1 receptor [1]; six days after start", "result": "further decrease in the response to SP"},
      {"measurement": "SP-induced thermal hyperalgesia (thermal latency)", "setting": "NK-1 receptor [1]; three days after start", "result": "attenuated"},
      {"measurement": "NK-1 receptor protein expression (Western blot) compared to ACSF control", "setting": "NK-1 receptor [2]", "result": "significantly attenuates the protein expression"},
      {"measurement": "reversal of established mechanical allodynia, lower dose", "setting": "NK-1 receptor [3]; intrathecal 0.45 micro grams/microlitres/h for 6 days starting 7 days following nerve constriction", "result": "had no effect in reversing the decrease in mechanical thresholds"},
      {"measurement": "prevention of mechanical allodynia, delivery to sacral rather than lumbar spinal cord", "setting": "NK-1 receptor [3]; intrathecal 1 micro grams/microlitres/h from 2 days prior to surgery, catheter just less than 1 cm from lumbar level", "result": "failed to prevent the development of allodynia"},
      {"measurement": "mechanical response threshold, contralateral side", "setting": "NK-1 receptor [3]; [7]", "result": "no effect"},
      {"measurement": "reversal of established mechanical allodynia, ipsilateral hind paw", "setting": "NK-1 receptor [3]; [7]", "result": "reversed allodynia"},
      {"measurement": "mechanical response threshold, ipsilateral hind paw (prevention of mechanical allodynia)", "setting": "NK-1 receptor [3]; intrathecal (lumbar) 1 micro grams/microlitres/h from 2 days prior to sciatic nerve constriction and throughout testing", "result": "did not show a decrease in their threshold of mechanical stimulation"},
      {"measurement": "joint flexibility (difference between extension and flexion) compared to saline controls", "setting": "NK-1 receptor [4]", "result": "significantly improved flexibility"},
      {"measurement": "joint flexibility compared to naïve animals", "setting": "NK-1 receptor [4]", "result": "not significantly different"},
      {"measurement": "zymosan-induced plasma extravasation of the colon", "setting": "NK-1 receptor [5]", "result": "significantly lower"},
      {"measurement": "substance P-induced plasma extravasation (skin)", "setting": "NK-1 receptor [6]", "result": "significantly reduced"}
    ]}
  ]
}
